Measured values from patent US20060234997A1, “Tetrahydro-pyridoazepin-8-ones and related compounds for the treatment of schizophrenia” (WARNER-LAMBERT COMPANY LLC, priority 2005, published 2006).
Marks after values point to notes of the source that are not given here.

Legend:
[1] = target: T1, Dopamine D2 receptor (hD2L) (Homo sapiens, UniProt P14416); experiment: Dopamine D2 Receptor Binding Assay ([3H]spiperone, CHO-hD2L membranes); conditions: [3H]spiperone 0.4 nM, membrane preparation from CHO-hD2L cells
T1 construct: expressed in transfected cells; host or cells: CHO cells (CHO-hD2L)
T1 sequence (P14416 whole entry): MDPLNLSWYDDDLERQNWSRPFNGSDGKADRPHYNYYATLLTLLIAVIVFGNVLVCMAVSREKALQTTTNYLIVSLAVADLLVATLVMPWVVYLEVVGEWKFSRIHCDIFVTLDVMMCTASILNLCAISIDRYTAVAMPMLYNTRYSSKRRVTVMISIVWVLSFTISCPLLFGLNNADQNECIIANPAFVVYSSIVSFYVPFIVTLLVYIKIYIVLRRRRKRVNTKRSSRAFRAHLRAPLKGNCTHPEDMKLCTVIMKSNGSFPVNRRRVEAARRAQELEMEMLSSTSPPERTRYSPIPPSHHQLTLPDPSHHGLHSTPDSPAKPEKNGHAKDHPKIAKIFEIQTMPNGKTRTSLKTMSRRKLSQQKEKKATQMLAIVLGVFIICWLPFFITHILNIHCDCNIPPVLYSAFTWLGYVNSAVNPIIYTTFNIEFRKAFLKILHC
Source text: The ability of the novel compounds of this invention to bind to the dopamine D2 receptor can be determined using conventional radioligand receptor binding assays. All receptors can be heterologously expressed in cell lines and binding assays can be conducted in membrane preparations from the cell lines using procedures outlined below. IC50 concentrations can be determined by nonlinear regression of concentration-dependent reduction in specific binding. The Cheng-Prussoff equation can be used to convert the IC50 to Ki concentrations.
[^3H]Spiperone binding to a membrane preparation from CHO-hD2L cells was carried out in 250 μl of 50 mM Tris-HCl buffer containing 100 mM NaCl, 1 mM MgCl2 and 1% DMSO at pH 7.4. Duplicate samples containing (in order of addition) the test compounds, 0.4 nM [^3H]spiperone and approximately 12 μg protein were incubated for 120 minutes at room temperature. Bound radioligand was separated by rapid filtration under reduced pressure through Whatman GF/B glass fiber filters previously treated with 0.3% polyethyleneimine. Radioactivity retained on the filter is determined by liquid scintillation spectrophotometry.

[2] = tested on: spontaneous locomotor activity in rats; experiment: Spontaneous Locomotor Activity Inhibition Test; assay type: in vivo, rat; conditions: 60 min after dosing, recorded 1 hour, mean ± SEM
Source text: Potential therapeutic effects of 2-{4-[4-(7-Fluoro-naphthalen-1-yl)-piperazin-1-yl]-butoxy}-5,6,7,9-tetrahydro-1,7,9-triaza-benzocyclohepten-8-one (hereinafter the “test compound”) were investigated in a spontaneous locomotor activity inhibition test in rats, a behavioral test predictive of antipsychotic activity. (A. E. Corbin, et. al.: PD 158771, a potential antipsychotic agent with D2/D3 partial agonist and 5-HT1A agonist actions. II. Prelinical behavioral effects. Neuropharmacology 39: 1211-1221 (2000)) The testing was performed using 16-Beam Digiscan Animal Activity Monitors (Accuscan Electronics, Columbus, Ohio). Each test chamber consisted of a PLEXIGLAS® box measuring 16×16 inches. These boxes were housed inside stainless steel, ventilated sound-attenuating chambers (SACs). Lights inside the SACs were off. Male Sprague-Dawley rats (Harlan), weighing 180 to 200 g at the time of testing, were used. Rats were provided with food and water ad libitum, but were food deprived for 24 hours before testing. Rats were randomly assigned to vehicle or drug treatment groups, and were tested one per chamber. On the test day, rats were removed from the housing room and brought to the test room, where they were placed into PLEXIGLAS® isolator cages on corncob bedding, 4 rats per cage. Rats were dosed orally (PO) with the test compound or vehicle, and then returned to the isolators. After a 60-minute absorption period, each rat was placed into the test chamber, the chamber door closed, and recording of locomotor activity begun. Locomotor activity was recorded for 1 hour, in 5-minute blocks. The test compound was suspended in 1% cremophor EL, 1% HCl 1N, and 0.5% methocel in water. The test compound or the vehicle was administered in a volume of 5 mL/kg. Doses are expressed as the active moiety (ie, base). Locomotor activity was measured as centimeters traveled and expressed as percent inhibition from vehicle control. Statistical analysis was performed using a one-way ANOVA followed by a post hoc Dunnett's test. Data from the vehicle-treated control groups from each experiment were compared using a one-way ANOVA.

Row | SMILES | melting point | Ki [1] | other results
1 | O=C1NCCc2ccc(OCCCCN3CCN(c4cccc5c4CCC5)CC3)nc2N1 [Example 13, 2-[4-(4-Indan-4-yl-piperazin-1-yl)-butoxy]-5,6,7,9-tetrahydro-1,7,9-triaza-benzocyclohepten-8-one] | 70 to 72 °C | 0.59 nM | –
2 | O=C1NCCc2ccc(OCCCCN3CCN(c4cccc5ccc(F)cc45)CC3)nc2N1 [Example 18, 2-{4-[4-(7-Fluoro-naphthalen-1-yl)-piperazin-1-yl]-butoxy}-5,6,7,9-tetrahydro-1,7,9-triaza-benzocyclohepten-8-one] | – | 1.79 nM | Percent Decrease from Control (locomotor activity) ([2]; 0.1 mg/kg PO): 9.0 ± 37.9^c; Percent Decrease from Control (locomotor activity) ([2]; 0.3 mg/kg PO): 38.3 ± 47.2^bd; Percent Decrease from Control (locomotor activity) ([2]; 1 mg/kg PO): 53.7 ± 4.8^bd; Percent Decrease from Control (locomotor activity) ([2]; 3 mg/kg PO): 75.4 ± 3.5^cd
3 | O=C1NCCc2ccc(OCCCCN3CCN(c4cccc5c4OCC5)CC3)nc2N1 [Example 19, 2-{4-[4-(2,3-Dihydro-benzofuran-7-yl)-piperazin-1-yl]-butoxy}-5,6,7,9-tetrahydro-1,7,9-triaza-benzocyclohepten-8-one] | 72 to 73 °C | 0.4 nM | –
4 | O=C1NCCc2ccc(OCCCCN3CCN(c4cccc5c4OCCCO5)CC3)nc2N1 [Example 20, 2-{4-[4-(3,4-Dihydro-2H-benzo[b][1,4]dioxepin-6-yl)-piperazin-1-yl]-butoxy}-5,6,7,9-tetrahydro-1,7,9-triaza-benzocyclohepten-8-one] | 78 to 79 °C | 1 nM | –
5 | O=C1NCCc2ccc(OCCCN3CCN(c4cccc(Cl)c4Cl)CC3)cc2N1 [Example 28, 8-{3-[4-(2,3-Dichlorophenyl)piperazin-1-yl]propoxy}-1,3,4,5-tetrahydrobenzo[d][1,3]diazepin-2-one] | 183 to 184 °C | – | –
6 | O=C1NCCc2ccc(OCCCCN3CCN(c4cccc(Cl)c4Cl)CC3)cc2N1 [Example 29, 8-{4-[4-(2,3-Dichlorophenyl)piperazin-1-yl]butoxy}-1,3,4,5-tetrahydrobenzo[d][1,3]diazepin-2-one] | 185 to 186 °C | – | –
7 | O=C1NCCc2ccc(OCCCCN3CCN(c4cccc(C5CC5)n4)CC3)cc2N1 [Example 37] | 155 to 156 °C | 1.81 nM | –
8 | CC1(C)CCC(=O)Nc2cc(OCCCCN3CCN(c4cccc(Cl)c4Cl)CC3)ccc21 [Example 54, 8-{4-[4-(2,3-Dichlorophenyl)piperazin-1-yl]-butoxy}-5,5-dimethyl-1,3,4,5-tetrahydrobenzo[b]azepin-2-one] | 106 to 108 °C | – | –
9 | CC1(C)CCc2ccc(OCCCCN3CCN(c4cccc(Cl)c4Cl)CC3)cc2NC1=O [Example 57, 8-{4-[4-(2,3-Dichlorophenyl)piperazin-1-yl]butoxy}-3,3-dimethyl-1,3,4,5-tetrahydrobenzo[b]azepin-2-one] | 110 to 112 °C | – | –
10 | O=C1NCCc2ccc(/C=C/CCCN3CCN(c4cccc(Cl)c4Cl)CC3)cc2N1 [Example 64] | 219 to 220 °C | 9.49 nM | –
11 | O=C1NCCc2ccc(CCCCCN3CCN(c4cccc(Cl)c4Cl)CC3)cc2N1 [Example 65] | 159 to 161 °C | 4.47 nM | –

Now from value to compound, other results behind:

Row | melting point | Ki [1] | SMILES | other results
12 | 162 to 164 °C | – | CC1(C)CCC(=O)Nc2cc(OCCCN3CCN(c4cccc(Cl)c4Cl)CC3)ccc21 [Example 53, 8-{3-[4-(2,3-Dichlorophenyl)piperazin-1-yl]-propoxy}-5,5-dimethyl-1,3,4,5-tetrahydrobenzo[b]azepin-2-one] | –
13 | 128 to 130 °C | – | CC1(C)CCC(=O)Nc2cc(OCCCCCN3CCN(c4cccc(Cl)c4Cl)CC3)ccc21 [Example 55, 8-{5-[4-(2,3-Dichlorophenyl)piperazin-1-yl]-pentyloxy}-5,5-dimethyl-1,3,4,5-tetrahydrobenzo[b]azepin-2-one] | –
14 | 215 to 218 °C | 25 nM | CC1(C)CNC(=O)Nc2cc(CCCCCN3CCN(c4cccc(Cl)c4Cl)CC3)ccc21 [Example 67, 8-{5-[4-(2,3-Dichlorophenyl)piperazin-1-yl]pentyl}-5,5-dimethyl-1,3,4,5-tetrahydro-benzo[d][1,3]diazepin-2-one Methanesulfonic Acid] | –
15 | 108 to 109 °C | 70.9 nM | CC1(C)CCC(=O)Nc2cc(/C=C/CCCN3CCN(c4cccc(Cl)c4Cl)CC3)ccc21 [Example 69] | –
16 | 168 to 170 °C | 56.5 nM | CC1(C)CCC(=O)Nc2cc(CCCCCN3CCN(c4cccc(Cl)c4Cl)CC3)ccc21 [Example 70, 8-{5-[4-(2,3-Dichlorophenyl)piperazin-1-yl]pentyl}-5,5-dimethyl-1,3,4,5-tetrahydrobenzo[b]azepin-2-one Methanesulfonic Acid] | –
